Measured values published in publication PMC10178127, “Immunomodulatory Effects of the Pea Defensin Psd1 in the Caco-2/Immune Cells Co-Culture upon Candida albicans Infection” (International Journal of Molecular Sciences, 2023).

Legend:
[1] = system: Caco-2/moDCs co-culture; test: Multiplex xMAP cytokine production, Caco-2/dendritic cells co-culture; type: cell-based, human; settings: 24 h; for EGF level / Eotaxin level / FGF-2 level / FLT-3L level / Fractalkine level / G-CSF level / GM-CSF level / GROa level / IFNa2 level / IFNg level / IL-1RA level / IL-1a level / IL-1b level / IL-2 level / IL-3 level / IL-4 level / IL-5 level / IL-6 level / IL-7 level / IL-8 level / IL-9 level / IL-10 level / IL-12 (p40) level / IL-12 (p70) level / IL-13 level / IL-15 level / IL-17A level / IL-17E/IL-25 level / IL-17F level / IL-18 level / IL-22 level / IL-27 level / IP-10 level / M-GSF level / MCP-1 level / MCP-3 level / MDC level / MIG level / MIP-1a level / MIP-1b level / PDGF-AA level / PDGF-AB/BB level / RANTES level / TGF-a level / TNFa level / TNFb level / VEGFa level / sCD40L level: 2 µM apical, basolateral medium
Excerpt: The co-culture model consisted of immune cells (moDCs or monocytes) lying on the bottom of the culture well, and a Caco-2 polarized monolayer, mimicking intestinal epithelium, on a permeable insert. Immune cells were located on the serosal side of the epithelial barrier. In some inserts Candida albicans was loaded to the apical side of the epithelium, mimicking intestinal lumen colonization with this pathogenic fungus. This co-culture model allows yeast cells to contact only with the apical side of epithelial cells, but not with immune cells. Culture medium, containing cytokines, chemokines, and growth factors, produced by both epithelial and immune cells, was taken from basolateral chambers and analyzed by multiplex xMAP technology after incubation during 24 h when C. albicans cells switched to hyphal form.
For growing cells, mimicking epithelial barriers in vitro, Caco-2 cells were seeded onto 24-well polycarbonate Millicell cell culture inserts (0.4 μm, 0.6 cm^2 surface area) (Millipore, Burlington, MA, USA), precoated with 0.2% bovine gelatin (Sigma-Aldrich), at a density of 2.5 × 10^5 cells/cm^2. The cells were grown for 21 days in a complete DMEM/F12 (1:1) medium with re-feeding every 2–3 days with a fresh complete medium. The integrity of the Caco-2 cell monolayer was checked by measuring the transepithelial electrical resistance (TEER) using a Millicell-ERS Voltohmmeter (Millipore). Only cell monolayers with TEER > 400 Ωcm^2 (after subtracting TEER in blank inserts without Caco-2 cells) were used in transport across epithelial monolayer and cytokine production experiments.
Monocytes and moDCs were seeded into the wells of 48- and 24-well plates in the complete RPMI-1640 medium supplemented with 10% human AB serum (HABS, Capricorn Scientific) without antibiotics 24 h prior to the experiment, and kept in a humidified CO2-incubator (5% CO2, 37 °C). After 24 h, the medium in the wells of the 48-well plate was replaced by fresh complete RPMI-1640 medium with 10% HABS, supplemented with 2 µM of Psd1 for the sample wells or fresh medium alone for the control wells. Medium in the wells of the 24-well plate was replaced by fresh complete RPMI-1640 medium with 10% human serum without antibiotics. Then, Millicell inserts with Caco-2 monolayers with TEER > 400 Ωcm^2 were placed into the wells of the 24-well plate, containing monocytes or moDCs. Wells with Millicell inserts with Caco-2 monolayers without immune cells were used as control wells. Medium in apical chambers of Millicell inserts was replaced by fresh complete RPMI-1640 with 10% human serum medium containing Psd1 at the final concentration of 2 µM or Candida albicans at the concentration of 5 × 10^4 cells/mL or yeast cells together with the pea defensin at the same concentration. Fresh complete RPMI-1640 medium only with 10% human serum and without antibiotics was used in control wells. Plates were kept in CO2-incubator (5% CO2, 37 °C) for another 24 h. Culture supernatants from the wells of the 48-well plate and basolateral chambers of the 24-well plate were collected and stored at −70 °C degrees less than one month prior to the analytes assessment. […]

[2] = system: Beas-2B human bronchial epithelial cells; settings: cited from earlier work
Excerpt: It was shown previously that pea Psd1 is not toxic for Beas-2B human bronchial epithelial cells. Here we investigated the cytotoxic action of the pea Psd1 on human immune cells by using a human peripheral blood mononuclear cells (PBMCs) fraction.

## Psd1: pea defensin from Pisum sativum (UNIPROT P81929), recombinant peptide overexpressed in Escherichia coli (KTCEHLADTYRGVCFTNASCDDHCKNKAHLISGTCHNWKCFCTQNC; UniProt P81929 1-46, looked up)
[1]; Caco-2/dendritic cells co-culture with C. albicans, 2 μM
  production of TNFα, IL-6, IL-8/CXCL8, IL-12, IL-27, G-CSF, GM-CSF, and MIPs induced by C. albicans: inhibited the production
[1]; Caco-2/moDCs+Candida+Psd1
  EGF level: 4.72 pg/mL
  Eotaxin level: <3.52↓ pg/ml
  FGF-2 level: 37.17 pg/mL
  FLT-3L level: 0.57 pg/mL
  Fractalkine level: <17.82↓ pg/ml
  G-CSF level: 3.15 pg/mL
  GM-CSF level: 1.96 pg/mL
  GROa level: 23.25 pg/mL
  IFNa2 level: 7.95 pg/mL
  IFNg level: <2.23↓ pg/ml
  IL-1RA level: 160.3 pg/mL
  IL-1a level: 3.72 pg/mL
  IL-1b level: <2.26↓ pg/ml
  IL-2 level: 1.49 pg/mL
  IL-3 level: <0.60↓ pg/ml
  IL-4 level: <1.14↓ pg/ml
  IL-5 level: 2.95 pg/mL
  IL-6 level: 1.46 pg/mL
  IL-7 level: <0.38↓ pg/ml
  IL-8 level: 107.27 pg/mL
  IL-9 level: 4.69 pg/mL
  IL-10 level: 17.03 pg/mL
  IL-12 (p40) level: 52.85 pg/mL
  IL-12 (p70) level: <1.68↓ pg/ml
  IL-13 level: 11.06 pg/mL
  IL-15 level: 8.46 pg/mL
  IL-17A level: <2.09↓ pg/ml
  IL-17E/IL-25 level: <18.85↓ pg/ml
  IL-17F level: <19.03↓ pg/ml
  IL-18 level: 4.94 pg/mL
  IL-22 level: <5.23↓ pg/ml
  IL-27 level: 49.72 pg/mL
  IP-10 level: 334.16 pg/mL
  M-GSF level: 123.66 pg/mL
  MCP-1 level: 307.65 pg/mL
  MCP-3 level: 19.67 pg/mL
  MDC level: 2630 pg/mL
  MIG level: 38259 pg/mL
  MIP-1a level: 16.22 pg/mL
  MIP-1b level: 78.16 pg/mL
  PDGF-AA level: 256.1 pg/mL
  PDGF-AB/BB level: 97.16 pg/mL
  RANTES level: <0.62↓ pg/ml
  TGF-a level: 35.55 pg/mL
  TNFa level: 18.93 pg/mL
  TNFb level: 0.97 pg/mL
  VEGFa level: 75.3 pg/mL
  sCD40L level: 84.71 pg/mL
[1]; Caco-2/moDCs+Psd1
  EGF level: 4.72 pg/mL
  Eotaxin level: <3.52↓ pg/ml
  FGF-2 level: 45.43 pg/mL
  FLT-3L level: 0.57 pg/mL
  Fractalkine level: <17.82↓ pg/ml
  G-CSF level: 9.1 pg/mL
  GM-CSF level: 3.93 pg/mL
  GROa level: 21.95 pg/mL
  IFNa2 level: 5.69 pg/mL
  IFNg level: <2.23↓ pg/ml
  IL-1RA level: 141.59 pg/mL
  IL-1a level: 4.37 pg/mL
  IL-1b level: 9.3 pg/mL
  IL-2 level: 1.57 pg/mL
  IL-3 level: <0.60↓ pg/ml
  IL-4 level: <1.14↓ pg/ml
  IL-5 level: 3.35 pg/mL
  IL-6 level: 2.41 pg/mL
  IL-7 level: <0.38↓ pg/ml
  IL-8 level: 134.16 pg/mL
  IL-9 level: 3.44 pg/mL
  IL-10 level: 10.61 pg/mL
  IL-12 (p40) level: 52.85 pg/mL
  IL-12 (p70) level: <1.68↓ pg/ml
  IL-13 level: 16.44 pg/mL
  IL-15 level: 10.29 pg/mL
  IL-17A level: <2.09↓ pg/ml
  IL-17E/IL-25 level: <18.85↓ pg/ml
  IL-17F level: <19.03↓ pg/ml
  IL-18 level: 4.84 pg/mL
  IL-22 level: <5.23↓ pg/ml
  IL-27 level: 53.57 pg/mL
  IP-10 level: 330.74 pg/mL
  M-GSF level: 144.24 pg/mL
  MCP-1 level: 362.92 pg/mL
  MCP-3 level: 20.63 pg/mL
  MDC level: 2562 pg/mL
  MIG level: 32839 pg/mL
  MIP-1a level: 20.66 pg/mL
  MIP-1b level: 85.91 pg/mL
  PDGF-AA level: 233.14 pg/mL
  PDGF-AB/BB level: 92.84 pg/mL
  RANTES level: <0.62↓ pg/ml
  TGF-a level: 40.15 pg/mL
  TNFa level: 20.96 pg/mL
  TNFb level: 1.55 pg/mL
  VEGFa level: 82.2 pg/mL
  sCD40L level: 98.67 pg/mL
[2]
  toxicity for Beas-2B cells: not toxic
